Entries after “also recorded” stand apart in the source; their conditions may differ. Where two headings read alike, the source gives them in different places.
Assays:
[1] = molecular target: human DNA ligase IV (Homo sapiens, UniProt P49917); assay: High-throughput fluorescence-based DNA joining (ligation) assay; format: biochemical; conditions: for % activity Inhibition hLigIV 100 uM: Ø not defined (0 in Table 5A)
From the text: (§1) The method for screening compounds comprises testing the compound for the ability to inhibit human DNA ligases I, III and IV with a high throughput fluorescence-based ligation assay. In this assay, phosphodiester bond formation covalently links together two oligonucleotides, one of which is a fluorescent donor AF488 that is 11 nucleotides from the 3′ terminus and the other contains a fluorescence acceptor and quencher, BHQ1 that is 15 nucleotides from the 5′ terminus. When these oligonucleotides are present in separate duplexes and in the same nicked or intact duplex, there is no significant quenching of fluorescence because the donor and acceptor are too far apart. As single-strands neither the AF488 oligonucleotide nor the BHQ1 oligonucleotides have significant secondary structure. However, when these oligonucleotides are ligated together, the resultant single strand forms a stable hairpin structure, in which the AF488 and BHQ1 groups are very close together, resulting in efficient intra-molecular quenching of fluorescence. Thus, in the DNA joining assay, the DNA substrate is denatured after incubation with the DNA ligase and then renatured in the presence of a 20-fold excess of an oligonucleotide that is identical to the ligated strand containing the fluorescent door and acceptor except that it lacks these modifications. Using this assay, DNA joining, which results in reduced fluorescence at 518 nm, can be measured rapidly, quantitatively and with high-throughput using a fluorescence plate reader.
(§2) Applicants developed a novel high throughput fluorescence-based ligation assay by modifying the sequence of the oligos to optimize hairpin formation by the single strand ligated product of the high throughput fluorescence-based ligation assay of Chen et al (22). […] Compound stock solutions, which were 10 mM in 0.5% DMSO, were diluted in 0.5% DMSO. Human DNA ligases I and III were assayed with a nicked DNA substrate whereas as the substrate for human DNA ligase IV was two oligonucleotide duplexes with short complementary single strand ends.

[2] = molecular target: T1, human DNA ligase III (Homo sapiens, UniProt P49916); assay: as above; format: biochemical
T1 sequence (P49916 1-862 isoform P49916-4): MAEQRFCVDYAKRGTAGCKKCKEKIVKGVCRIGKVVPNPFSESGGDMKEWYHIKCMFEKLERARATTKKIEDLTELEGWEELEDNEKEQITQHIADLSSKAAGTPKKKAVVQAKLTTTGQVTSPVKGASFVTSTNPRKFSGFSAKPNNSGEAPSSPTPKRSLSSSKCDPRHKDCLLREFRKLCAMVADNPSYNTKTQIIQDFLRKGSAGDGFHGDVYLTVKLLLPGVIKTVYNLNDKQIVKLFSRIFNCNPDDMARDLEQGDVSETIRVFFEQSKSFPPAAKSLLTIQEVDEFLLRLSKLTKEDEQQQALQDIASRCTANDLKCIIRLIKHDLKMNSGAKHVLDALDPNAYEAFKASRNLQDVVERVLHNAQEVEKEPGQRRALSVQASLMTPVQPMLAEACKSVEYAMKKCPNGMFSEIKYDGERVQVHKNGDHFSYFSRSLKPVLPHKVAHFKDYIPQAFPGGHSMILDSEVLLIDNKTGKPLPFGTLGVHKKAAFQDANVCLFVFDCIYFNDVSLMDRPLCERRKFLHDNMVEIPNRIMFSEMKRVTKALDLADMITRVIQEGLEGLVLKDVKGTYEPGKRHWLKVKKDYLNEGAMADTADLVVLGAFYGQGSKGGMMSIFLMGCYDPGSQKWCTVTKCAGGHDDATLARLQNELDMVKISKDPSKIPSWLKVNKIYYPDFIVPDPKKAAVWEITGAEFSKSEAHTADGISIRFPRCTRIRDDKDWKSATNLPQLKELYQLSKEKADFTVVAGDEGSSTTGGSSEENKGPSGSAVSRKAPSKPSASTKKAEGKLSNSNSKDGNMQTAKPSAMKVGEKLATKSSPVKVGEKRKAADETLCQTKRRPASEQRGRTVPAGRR
From the text: as §1, §2

[3] = molecular target: T2, T4 DNA ligase (Enterobacteria phage T4, UniProt P00970); assay: High-throughput fluorescence-based DNA joining assay, non-specific inhibitor control; format: biochemical, bacteriophage T4
T2 construct: purchased NEB
T2 sequence (P00970 1-487): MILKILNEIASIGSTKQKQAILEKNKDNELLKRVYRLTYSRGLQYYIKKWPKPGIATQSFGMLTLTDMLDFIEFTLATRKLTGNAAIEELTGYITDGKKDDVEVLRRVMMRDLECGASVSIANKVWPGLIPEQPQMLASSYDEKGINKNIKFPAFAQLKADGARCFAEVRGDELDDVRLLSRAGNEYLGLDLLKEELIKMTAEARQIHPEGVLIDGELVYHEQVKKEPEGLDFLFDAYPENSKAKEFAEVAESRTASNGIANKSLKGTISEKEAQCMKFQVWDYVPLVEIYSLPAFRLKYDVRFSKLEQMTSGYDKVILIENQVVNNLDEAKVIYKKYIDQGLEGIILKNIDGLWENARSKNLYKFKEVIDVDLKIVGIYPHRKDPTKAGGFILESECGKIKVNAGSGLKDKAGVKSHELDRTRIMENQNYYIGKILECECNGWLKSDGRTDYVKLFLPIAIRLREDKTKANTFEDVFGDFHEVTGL
Protocol: (§3) Candidate ligase inhibitors identified by CADD were assayed for their ability to inhibit hLigI and T4 DNA ligase using a high-throughput, fluorescence energy transfer-based DNA joining assay (22). Duplicate reactions (30 μL) containing 10 pmol of nicked DNA substrate and either 0.25 pmol of hLigI or 10 units of T4 DNA ligase were incubated in the presence or absence of 100 μmol/L of the putative inhibitor. DNA binding by the candidate DNA ligase inhibitors was measured by displacement of ethidium bromide from DNA as previously described (30).
In addition, to identify compounds that may be non-specific inhibitors of DNA joining, the 192 compounds were also assayed for their ability to inhibit bacteriophage T4 DNA ligase, an enzyme that utilizes the same reaction mechanism as hLigI, has similar adenylation and OB-fold domains but lacks a DBD domain. (6) Although this is also an ATP-dependent DNA ligase, it lacks the domain containing the binding pocket targeted by the in silico screen. Compounds that inhibited T4 DNA ligase were eliminated as non-specific inhibitors that most likely bind to the DNA.

[4] = molecular target: T3, hLigI (Homo sapiens, UniProt P18858); assay: High-throughput fluorescence-based DNA joining (ligation) assay; format: biochemical; conditions: for inhibition of hLigI (DNA ligase I), in words: in vitro screen, 100 μmol/L, the 15 hLigI inhibitors inhibited by >50%
T3 construct: made in house
T3 sequence (P18858 whole entry): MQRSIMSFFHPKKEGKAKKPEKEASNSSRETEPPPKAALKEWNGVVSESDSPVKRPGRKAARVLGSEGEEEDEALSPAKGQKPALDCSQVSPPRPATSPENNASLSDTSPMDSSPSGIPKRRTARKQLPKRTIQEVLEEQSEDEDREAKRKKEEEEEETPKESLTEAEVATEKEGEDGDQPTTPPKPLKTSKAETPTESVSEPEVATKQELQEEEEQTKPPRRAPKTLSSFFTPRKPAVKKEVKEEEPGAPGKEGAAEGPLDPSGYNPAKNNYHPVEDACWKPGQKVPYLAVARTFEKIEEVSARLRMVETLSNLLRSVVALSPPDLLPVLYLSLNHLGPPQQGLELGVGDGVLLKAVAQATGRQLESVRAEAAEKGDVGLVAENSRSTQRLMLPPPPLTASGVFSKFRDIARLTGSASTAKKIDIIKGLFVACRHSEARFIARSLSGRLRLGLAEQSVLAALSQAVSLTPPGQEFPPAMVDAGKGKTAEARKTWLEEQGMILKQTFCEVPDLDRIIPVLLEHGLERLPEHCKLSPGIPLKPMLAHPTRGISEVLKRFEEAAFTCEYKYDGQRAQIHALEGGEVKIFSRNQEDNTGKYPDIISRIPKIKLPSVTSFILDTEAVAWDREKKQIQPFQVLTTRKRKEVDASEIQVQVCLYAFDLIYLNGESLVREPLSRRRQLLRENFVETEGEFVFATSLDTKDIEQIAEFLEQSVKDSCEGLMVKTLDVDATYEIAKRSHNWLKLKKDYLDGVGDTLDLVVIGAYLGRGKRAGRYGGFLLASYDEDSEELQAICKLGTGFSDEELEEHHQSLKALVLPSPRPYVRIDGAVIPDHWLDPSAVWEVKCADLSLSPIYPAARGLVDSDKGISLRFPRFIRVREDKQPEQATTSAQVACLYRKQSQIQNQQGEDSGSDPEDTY
Protocol: as §3, §1, §2

[5] = 100 uM, Ø not defined (0 in Table 5A)
[6] = read-out: % activity Inhibition LigT4 100 uM
[7] = 100 uM, read-out: % activity Inhibition hLigI 100 uM
[8] = read-out: % of inhibition @ 100 μM (Helen's data) hLigIV
[9] = read-out: % of inhibition @ 100 μM (Helen's data) hLigIII
[10] = 100 μM, read-out: % of inhibition @ 100 μM (Helen's data) hLigI
[11] = 100 uM, Ø not defined (0 in Table 5A), read-out: % activity Inhibition hLigIII 100 uM

Sequence of human DNA ligase IV (P49917 whole entry): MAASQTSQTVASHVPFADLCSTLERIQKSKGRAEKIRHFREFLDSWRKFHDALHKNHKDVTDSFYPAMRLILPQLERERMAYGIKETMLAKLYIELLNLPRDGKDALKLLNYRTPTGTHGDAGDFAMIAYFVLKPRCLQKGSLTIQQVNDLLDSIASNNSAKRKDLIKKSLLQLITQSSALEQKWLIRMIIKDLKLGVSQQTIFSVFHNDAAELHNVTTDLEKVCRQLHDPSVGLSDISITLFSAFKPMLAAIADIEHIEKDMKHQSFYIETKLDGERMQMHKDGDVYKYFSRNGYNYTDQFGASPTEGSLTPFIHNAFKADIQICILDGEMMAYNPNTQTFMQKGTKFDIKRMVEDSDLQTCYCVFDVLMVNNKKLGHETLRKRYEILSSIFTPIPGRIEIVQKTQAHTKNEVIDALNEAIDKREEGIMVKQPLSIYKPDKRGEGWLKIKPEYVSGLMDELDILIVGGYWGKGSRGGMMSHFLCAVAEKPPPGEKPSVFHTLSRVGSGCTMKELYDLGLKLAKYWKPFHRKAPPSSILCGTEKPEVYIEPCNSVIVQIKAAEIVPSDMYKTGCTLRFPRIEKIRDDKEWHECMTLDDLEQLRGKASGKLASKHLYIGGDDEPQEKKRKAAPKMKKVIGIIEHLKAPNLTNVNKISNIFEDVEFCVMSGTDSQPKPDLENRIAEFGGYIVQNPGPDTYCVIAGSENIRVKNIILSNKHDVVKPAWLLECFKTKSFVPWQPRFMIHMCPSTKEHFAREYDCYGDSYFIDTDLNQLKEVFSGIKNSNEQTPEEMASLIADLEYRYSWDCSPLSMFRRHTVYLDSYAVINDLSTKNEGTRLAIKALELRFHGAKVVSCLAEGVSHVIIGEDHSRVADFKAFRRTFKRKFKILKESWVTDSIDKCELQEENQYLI
Sequence of human DNA ligase IV (Q13426 whole entry partner): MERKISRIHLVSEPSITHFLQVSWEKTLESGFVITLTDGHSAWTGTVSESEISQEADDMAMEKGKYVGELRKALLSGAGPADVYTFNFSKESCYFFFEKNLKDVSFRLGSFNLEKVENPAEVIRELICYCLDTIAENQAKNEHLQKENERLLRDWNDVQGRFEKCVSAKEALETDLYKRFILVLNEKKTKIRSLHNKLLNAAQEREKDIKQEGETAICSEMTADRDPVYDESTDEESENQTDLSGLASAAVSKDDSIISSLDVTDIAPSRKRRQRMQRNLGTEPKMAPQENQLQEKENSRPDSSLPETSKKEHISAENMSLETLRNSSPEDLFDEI

| Structure (SMILES) | % activity Inhibition hLigIV 100 uM [1] | % activity Inhibition hLigIII 100 uM [2, 5] | inhibition at 100 µM [3, 6] [%] | inhibition at 100 µM [4, 7] [%] | other results |
| --- | --- | --- | --- | --- | --- |
| O=C(O)c1ccc(Sc2ccccn2)c([N+](=O)[O-])c1 [Compound 47] | Ø | Ø | 2.2 ± 0.7 | 24.2 ± 4.3 |  |
| CCC(Nc1ncnc2ccccc12)C(=O)O (stereo not drawn) [Compound 51] | Ø | Ø | 0 | 24.3 ± 13.5 |  |
| O=C(O)Cn1nnnc1-c1ccc(F)cc1 [Compound 37] | Ø | Ø | 3.7 | 25.2 ± 14.1 |  |
| O=C(O)c1ccc2nccnc2c1 [Compound 175] |  |  |  |  | inhibition of hLigI (DNA ligase I), in words [4]: inhibited hLigI |
| COC(=O)c1ccc(S(=O)(=O)O)o1 [Compound 55] | Ø | Ø |  |  | % activity Inhibition LigT4 100 uM [3]: 0.58 ± 3.1%; % activity Inhibition hLigI 100 uM ([4]; 100 uM): 7.5 ± 9.3% |
| Sc1nccc(-c2cccnc2)n1 [Compound 130] |  |  |  |  | inhibition at 100 µM [1, 8]: < 20%; inhibition at 100 µM [2, 9]: < 20%; inhibition at 100 µM [4, 10]: < 20% |
| O=C(O)c1ccc(C(=O)c2ccc3c(c2)C(=O)N(CCO)C3=O)cc1 [Compound 46] | Ø |  |  |  | inhibition at 100 µM [2, 11]: 21.6 ± 8.56%; % activity Inhibition hLigI 100 uM ([4]; 100 uM): Ø |
| O=C(O)Cc1ccccc1S(=O)(=O)c1ccc(Cl)cc1 [Compound 193] | Ø | Ø |  |  | % of inhibition @ 100 μM (Helen's data) hLigIV [1]: NI (NI- no inhibition); % of inhibition @ 100 μM (Helen's data) hLigIII ([2]; 100 μM): NI (NI- no inhibition); % activity Inhibition LigT4 100 uM [3]: 0.44 ± 2.1%; % activity Inhibition hLigI 100 uM ([4]; 100 uM): 28.2 ± 34.4%; % of inhibition @ 100 μM (Helen's data) hLigI ([4]; 100 μM): NI (NI- no inhibition) |
| Cc1[nH]c2ccc(C(=O)O)cc2c1CC(=O)O [Compound 35] | Ø | Ø | 3.7 ± 2.3 | 38.7 |  |
| COC(=O)c1ccc(-n2nnnc2SCC(=O)c2ccc(O)c(O)c2)cc1 [Compound 32] |  |  |  |  | inhibition of hLigI (DNA ligase I), in words [4]: inhibited hLigI |
| COc1ccc(C(CC(=O)O)NC(=O)c2ccco2)cc1 (stereo not drawn) [Compound 207] | Ø |  | 10 ± 2 | 20.7 ± 19 | inhibition at 100 µM [2, 11]: 25.8 ± 10.7% |
| COc1cccc(Cn2nnc(C(=O)O)c2C(=O)O)c1 [Compound 103] | Ø | Ø | 6.2 ± 4.3 | 23.1 ± 1.8 |  |
| COC(=O)c1scc(Br)c1O [Compound 124] |  |  |  |  | inhibition at 100 µM [1, 8]: < 20%; inhibition at 100 µM [2, 9]: < 20%; inhibition at 100 µM [4, 10]: < 20% |
| O=C(O)c1ccc([N+](=O)[O-])c(C(=O)O)n1 [Compound 212] |  |  |  |  | inhibition at 100 µM [1, 8]: < 20%; inhibition at 100 µM [2, 9]: < 20%; inhibition at 100 µM [4, 10]: < 20% |
| O=C(O)CN1C(=O)c2ccc([N+](=O)[O-])cc2C1=O [Compound 90] | Ø | Ø | 1.6 ± 3.1 | 20.7 ± 4.8 |  |
| Oc1nn(-c2ccc(Br)cc2)cc1Br [Compound 221] |  |  |  |  | inhibition at 100 µM [1, 8]: < 20%; inhibition at 100 µM [2, 9]: < 20%; inhibition at 100 µM [4, 10]: > 20% |
| O=C(O)c1ccc(C(=O)O)c(C(=O)O)c1 [Compound 53] | Ø | Ø | 3.7 ± 4.8 | 36.4 ± 4.7 |  |
| N#CCSc1nnc(SCC#N)s1 [Compound 123] |  |  |  |  | inhibition of hLigI (DNA ligase I), in words [4]: inhibited hLigI |
| O=C1Nc2c(C(=O)O)cccc2C1=O [Compound 25] | Ø |  | 12.9 ± 6.3 | 59.3 ± 7.5 | inhibition at 100 µM ([1]; read-out: In vitro % inhib hLigIV 100): 0%; inhibition at 100 µM ([2]; 100 μM, read-out: In vitro % inhib hLigIII 100): 73 ± 5%; inhibition at 100 µM [2, 11]: 72.8 ± 4.8%; inhibition of human DNA ligase III, in words ([2]; in vitro screen): specifically inhibit DNA ligases I and III; inhibition at 100 µM ([3]; 100 μM, read-out: In vitro % inhib T4 100): 13 ± 6%; inhibition at 100 µM ([4]; 100 μM, read-out: In vitro % inhib hLigI 100): 59 ± 8%; inhibition of hLigI (DNA ligase I), in words [4]: inhibited hLigI; also recorded: specifically inhibit DNA ligases I and III |
| Nc1nonc1C(=O)O [Compound 54] | Ø | Ø | 6.9 ± 0.45 | 32.2 ± 10.5 |  |
| O=C(NN=Cc1ccc(S(=O)(=O)O)o1)c1ccccc1O [Compound 79] |  |  |  |  | % of inhibition @ 100 μM (Helen's data) hLigIV [1]: NI (NI- no inhibition); % of inhibition @ 100 μM (Helen's data) hLigIII ([2]; 100 μM): NI (NI- no inhibition); % of inhibition @ 100 μM (Helen's data) hLigI ([4]; 100 μM): NI (NI- no inhibition) |

Source: US9757375B2, “Compounds that inhibit human DNA ligases and methods of treating cancer” (University of Maryland, Baltimore, priority 2007, dated 2017)
